Values of other authors in patent publication US9006292B2, “Metadichol® liquid and gel nanoparticle formulations” (NanoRx, Inc., priority 2013, dated 2015).
Read-outs that look alike come from different tables or passages of the source.

Key:
[1] = tested on: RDW; settings: 6 months
[2] = tested on: Lp(a); settings: in vivo
[3] = tested on: P. falciparum
[4] = topical, phase I trial of 14 patients

COCCc1ccc(OCC(O)CNC(C)C)cc1 (stereo not drawn) [Metoprolol]
RDW ([1]; 100 mg/day, n=35, from 15.6): 15.45

Human growth hormone: Human growth hormone, cited as raising Lp(a)
increase of Lp(a) [2]: up to 120%

C=C1/C(=C\C=C2/CCC[C@]3(C)[C@@H]([C@H](C)CCCC(C)(C)O)CC[C@@H]23)C[C@@H](O)C[C@@H]1O [1,25-dihydroxycholecalciferol]
growth of P. falciparum in culture ([3]; low doses): inhibitory
prevention of chemotherapy-induced alopecia [4]: failed to show efficacy

C=C1CC[C@H](O)C/C1=C/C=C1\CCC[C@]2(C)[C@@H]([C@H](C)CCCC(C)C)CC[C@@H]12 [vitamin D-3]
growth of P. falciparum in culture ([3]; higher levels): inhibitory

OC(CNCC(O)C1CCc2cc(F)ccc2O1)C1CCc2cc(F)ccc2O1 (stereo not drawn) [Nebivolol]
RDW ([1]; 5 mg/d, n=37, from 15.8): 15

C=C1CC[C@H](O)C/C1=C/C=C1\CCC[C@]2(C)[C@@H]([C@H](C)CCCC(C)(C)O)CC[C@@H]12 [25-hydroxy vitamin D3]
growth of P. falciparum in culture ([3]; low doses): inhibitory

C=C1/C(=C\C=C2/CCC[C@]3(C)[C@@H]([C@H](C)CCCC(C)C)CC[C@@H]23)C[C@@H](O)C[C@@H]1O [1-hydroxy Vitamin D-3]
growth of P. falciparum in culture ([3]; low doses): inhibitory

C=C1CC[C@H](O)C/C1=C/C=C1\CCC[C@]2(C)[C@@H]([C@H](C)/C=C/[C@H](C)C(C)C)CC[C@@H]12 [vitamin D-2]
growth of P. falciparum in culture ([3]; higher levels): inhibitory
